Measured values published in ChEMBL document CHEMBL4371008, “Monoacylglycerol Acyltransferase 2 (MGAT2) Inhibitors for the Treatment of Metabolic Diseases and Nonalcoholic Steatohepatitis (NASH)” (J Med Chem, 2018).
Values belong to the molecule of their own block, whether it stands above or below them.

Tests used:
[1] = test system: Mus musculus; test: Inhibition of plasma triacylglycerol excursion in mouse at 10 mg/kg relative to control; type: functional
[2] = test system: Mus musculus; test: Inhibition of plasma triacylglycerol excursion in mouse at 30 mg/kg relative to control; type: functional
[3] = target: T1, Diacylglycerol O-acyltransferase 2 (Homo sapiens, UniProt Q96PD7); test: Inhibition of recombinant human DGAT2
T1 sequence (Q96PD7 whole entry): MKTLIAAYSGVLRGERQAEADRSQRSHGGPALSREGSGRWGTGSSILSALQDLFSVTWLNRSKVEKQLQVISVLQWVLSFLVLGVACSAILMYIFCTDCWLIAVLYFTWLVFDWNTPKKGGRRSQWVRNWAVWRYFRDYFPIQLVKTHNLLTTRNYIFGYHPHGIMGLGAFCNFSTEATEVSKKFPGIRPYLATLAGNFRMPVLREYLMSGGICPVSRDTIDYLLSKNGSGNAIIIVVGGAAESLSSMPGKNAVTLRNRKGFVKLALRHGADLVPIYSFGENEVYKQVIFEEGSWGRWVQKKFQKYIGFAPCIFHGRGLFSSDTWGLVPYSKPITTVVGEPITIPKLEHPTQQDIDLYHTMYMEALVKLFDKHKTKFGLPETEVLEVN

[4] = test system: Mus musculus; test: Decrease in insulin level in high sucrose, very low fat diet fed mouse model of fatty liver at 100 mg/kg relative to control; type: functional; set-up: scale not given: the % may be the effect or the level left
[5] = species on record: Homo sapiens; test: Selectivity ratio of IC50 for human MGAT3 to IC50 for human MGAT2
[6] = test system: Mus musculus; test: Decrease in insulin level in high sucrose, very low fat diet fed mouse model of fatty liver at 30 mg/kg relative to control; type: functional; set-up: scale not given: the % may be the effect or the level left
[7] = test system: Mus musculus; test: Inhibition of corn oil-induced plasma triacylglycerol excursion in C57BL/6J mouse at 30 mg/kg administered via oral gavage 30 mins prior to corn oil challenge measured after 6 hrs by oral lipid tolerance test relative to control; type: functional
[8] = test system: Mus musculus; test: Anorectic effect in fasting high fat diet fed C57BL/6J mouse assessed as reduction in food intake at 30 mg/kg, po for 37 days followed by high fat diet feeding for 2 hrs relative to control; type: functional; set-up: scale not given: the % may be the effect or the level left
[9] = Ratio of plasma concentration in corn oil-treated C57BL/6J mouse at 30 mg/kg, ip to IC50 for mouse MGAT2; type: ADME, organism-based; conditions: in vivo
[10] = test system: Mus musculus; test: Inhibition of corn oil-induced plasma chylomicron triacylglycerol excursion in C57BL/6J mouse at 30 mg/kg, ip treated 16 hrs prior to liquid meal challenge measured up to 4 hrs by oral meal tolerance test relative to control; type: functional
[11] = Oral bioavailability in rat; type: ADME, organism-based; conditions: in vivo
[12] = Oral bioavailability in mouse; type: ADME, organism-based; conditions: in vivo

IC50 [3]: > 30 µM
Ratio IC50 [5]: 300
SMILES: CC(C)(C)c1cc(C(C)(C)C)nc(N2CCn3c(nnc3-c3ccc(OC(F)(F)F)cc3)C2)n1
Activity [4]: 51%
Activity [6]: 57%

Ratio [9]: 1000
SMILES: Cn1nc(C(F)(F)F)cc1-c1cnc(N2CCc3cc(S(=O)(=O)Nc4c(F)cc(Cl)cc4F)cc(N4CCCC4=O)c32)nc1 [TP-020]
Activity [8]: 59%
inhibition in vivo at 30 mg/kg [10]: 58%

bioavailability [11]: 74%
bioavailability [12]: 69%
SMILES: CCC1(C)NC(=O)c2cc(S(=O)(=O)Nc3ccc(F)cc3F)cc(Cl)c2NC1=O (stereo not drawn)

The remaining lines, values behind:

SMILES: CC(C)(C)C1CCN(Cc2ccc([C@H](NS(C)(=O)=O)C(F)(F)F)cc2)CC1
inhibition in vivo at 10 mg/kg [1]: 69%
inhibition in vivo at 30 mg/kg [2]: 100%

SMILES: O=C(CNCCCCCOc1ccc(C(F)(F)F)cc1)N1CCc2nc(SC3CCC3)n(-c3ccccc3)c(=O)c2C1
inhibition in vivo at 30 mg/kg [7]: 42%

SMILES: O=C(CCNCC1COc2ccccc2O1)N1CCc2nc(SC3CCC3)n(-c3ccccc3)c(=O)c2C1 (stereo not drawn)
inhibition in vivo at 30 mg/kg [7]: 42%
